According to patent US7144864B2, “Carboxypeptidase R inhibiting peptide” (Hidechika Okada, priority 2002, dated 2006):
Entries after “also recorded” stand apart in the source; their conditions may differ. Values belong to the compound of their own block, whether it stands above or below them. Bridge positions count the residues as written; N and C are the ends. Ends that are not written are not given here. Peptide text beside a SMILES is read from it.

Assays:
[1] = target: T1, purified CPR (carboxypeptidase R) (Homo sapiens, UniProt Q96IY4); assay: CPR kinetics: inhibition of CPR-catalysed hydrolysis of hippuryl-L-arginine; type: biochemical
T1 construct: from tissue
T1 sequence (Q96IY4 115-423): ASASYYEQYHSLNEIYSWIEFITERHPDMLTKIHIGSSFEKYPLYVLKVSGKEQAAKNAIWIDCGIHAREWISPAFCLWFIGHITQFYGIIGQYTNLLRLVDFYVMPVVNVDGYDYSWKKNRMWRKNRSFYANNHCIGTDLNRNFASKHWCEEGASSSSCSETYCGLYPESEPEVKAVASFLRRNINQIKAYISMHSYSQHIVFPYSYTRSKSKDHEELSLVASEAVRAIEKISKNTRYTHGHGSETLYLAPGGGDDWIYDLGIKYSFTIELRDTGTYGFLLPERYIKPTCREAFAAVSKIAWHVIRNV
Method: (§1) ProCPR was purified to homogeneity as previously described. […] CPN was purified to homogeneity as previously described. The enzyme gave three bands on SDS-PAGE at 83 kDa, 53 kDa and 50 kDa corresponding to the two large identical glycosylated subunits and the two smaller active subunits, respectively.
The activity of the CPR inhibitors was determined against purified CPR using hippuryl-L-arginine as the substrate. The peptides PCI-2K-R, CPI-2KR, PCI (500, 250/125/62.5, 50 mg/ml, respectively) or Tris-HCl buffer (50 mM; pH 7.5) were added to active CPR (40–320 mg/ml) at a 1:7 ratio. After thorough mixing, […] was incubated with various concentrations of hippuryl-L-arginine (1.2–6.0 mM), for 15 minutes at 37° C. The reaction was stopped with the addition of sodium phosphate buffer ([…]; 0.25 M), immediately followed by 3% cyanuric chloride in 1,4-dioxane ([…]). After mixing well, the generation of hippuric acid was determined by measuring the OD at 405 nm on a SpectraMAX 250 Microplate Spectrophotometer (Molecular Device Corporation, Sunnyvale, Calif., USA). Hippuric acid (0–2.0 mM) in Tris buffer was used as the standard.
A kinetics analysis of the CPR-catalysed hydrolysis of hippuryl-L-arginine in the absence and presence of inhibitory molecules was performed. The Lineweaver-Burk reciprocal plot, based on rearrangement of the Henri-Michaelis-Menten equation into a linear form, was applied:
[formula] where v (in mM sec^−1) is the instantaneous or initial velocity, [S] (mM) is the substrate concentration, Km(mM)is equivalent to the substrate concentration that yields half-maximal velocity and Vmax(mM sec^−1) is the maximum velocity. For competitive inhibition, where the inhibitor competes with the substrate for binding to the enzyme, the following mechanism was assumed: where
In competitive inhibition, the apparent Vmax is not affected with increasing inhibitor concentrations because once substrate binds the reaction proceeds normally (i.e. Vmax depends only on maximum ES complex concentration, which only depends on the total amount of enzyme present) However, the apparent Km increases (i.e. a higher substrate concentration is required for a given velocity) by a factor of [1+([I]/Ki)].
[formula] where Kmapp is the apparent Km for a given inhibitor concentration.
The Dixon plot (1/v versus [I] in the presence of different concentrations of substrate) provides a more diagnostic way of identifying the type of inhibition and determining the Ki: […]

[2] = target: T2, purified CPN (carboxypeptidase N) (Homo sapiens, UniProt P15169); assay: CPN kinetics: effect on purified CPN with hippuryl-L-arginine as substrate; type: biochemical
T2 construct: corresponding to the two large identical glycosylated subunits and the two smaller active subunits; from tissue
T2 sequence (P15169 21-458): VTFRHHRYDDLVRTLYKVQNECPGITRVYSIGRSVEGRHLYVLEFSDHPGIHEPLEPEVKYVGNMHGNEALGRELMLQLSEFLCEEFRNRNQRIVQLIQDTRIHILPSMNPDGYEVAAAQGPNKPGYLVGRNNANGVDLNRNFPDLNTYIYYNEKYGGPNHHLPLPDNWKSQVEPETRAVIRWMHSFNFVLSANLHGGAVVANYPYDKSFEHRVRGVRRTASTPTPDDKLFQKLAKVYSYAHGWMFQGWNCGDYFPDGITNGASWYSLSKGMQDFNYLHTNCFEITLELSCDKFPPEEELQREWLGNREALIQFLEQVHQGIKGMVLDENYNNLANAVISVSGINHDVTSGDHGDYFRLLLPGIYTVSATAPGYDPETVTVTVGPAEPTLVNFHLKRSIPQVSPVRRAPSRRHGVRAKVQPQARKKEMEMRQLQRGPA
T2 sequence (P22792 22-545 partner): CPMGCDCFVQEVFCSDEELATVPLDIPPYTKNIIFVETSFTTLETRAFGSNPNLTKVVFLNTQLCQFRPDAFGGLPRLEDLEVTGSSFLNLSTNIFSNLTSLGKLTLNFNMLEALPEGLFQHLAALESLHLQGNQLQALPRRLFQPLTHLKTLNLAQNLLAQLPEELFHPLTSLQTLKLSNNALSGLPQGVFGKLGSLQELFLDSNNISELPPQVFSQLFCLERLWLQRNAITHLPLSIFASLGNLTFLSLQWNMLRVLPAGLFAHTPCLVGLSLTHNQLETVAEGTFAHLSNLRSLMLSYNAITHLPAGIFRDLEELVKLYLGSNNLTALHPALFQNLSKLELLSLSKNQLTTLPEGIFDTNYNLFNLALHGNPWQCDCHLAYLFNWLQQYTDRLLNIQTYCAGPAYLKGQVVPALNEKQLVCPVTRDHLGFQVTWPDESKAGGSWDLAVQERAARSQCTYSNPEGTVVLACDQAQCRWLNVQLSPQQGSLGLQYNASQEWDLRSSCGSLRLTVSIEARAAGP
Method: as §1
The effect of CPI-2KR on purified CPN was determined using hippuryl-L-arginine as the substrate. Guanidinoethylmercaptosuccinic acid (GEMSA) was used as a positive control. CPI-2KR ([…]), GEMSA ([…]) or Tris-HCl buffer (50 mM; pH 7.5) were added to CPN (10 mg/ml) at a 1:7 ratio. Identical conditions to those used for the CPR kinetics experiments were subsequently applied.

[3] = test system: TM-induced retardation of t-PA-induced fibrinolysis; assay: TM-induced retardation of t-PA-induced fibrinolysis in human plasma (clot lysis); type: biochemical
Method: Human plasma was obtained by centrifugation of citrated blood at 3000 g for 15 minutes at room temperature. In a 96-well microtitre plate, […] of a thrombin/calcium mix [50 ml calcium (CaCl Q; 1 M), […] of thrombin (T; 500 U/ml) and 430 ml of Tris buffer (50 mM, pH 7.5)] was added followed by 10 ml of thrombomodulin (TM; final concentration 8 nM). Subsequently, 10 ml of peptide solution in Tris buffer (16 mg/ml […]), Tris buffer or PCI (50 mg/ml) were added. After the addition of 50 ml of a t-PA/plasma mix [[…] of t-PA (130 mg/ml) mixed with 1 ml of pre-warmed citrated plasma (37° C. for 5 minutes) ] the plate was immediately read at 420 nm every 5 minutes for 2 hours on a SpectraMAX 250 Microplate Spectrophotometer (Molecular Device Corporation, Sunnyvale, Calif., USA). Lysis time was defined as the time required for the absorbance to reach half the difference between the plateau reached after clotting and baseline achieved at clot lysis.

CPR = target: T3, CPR (Homo sapiens, UniProt Q96IY4); conditions: cited from earlier work
T3 sequence (Q96IY4 115-423): T1 sequence (Q96IY4 115-423)

Compound: CPI-2KR-cyclic: cyclised CPI-2KR via N- and C-terminal cysteine residues, SEQ ID NO: 3 (CKPAKNARC; disulfide 1-9)
effect on TM-induced retardation of t-PA-induced fibrinolysis (in words) [3]: dramatic loss of inhibitory activity

Compound: PCI-2K: PCI-derived peptide containing the two lysine residues, SEQ ID NO: 1 (NKPCKTHDD)
inhibitory activity against CPR (in words) [1]: no activity was observed

Compound: tetrapeptide C-terminal fragment of PCI: tetrapeptide C-terminal fragment of PCI (PYVG)
inhibitory activity against CPR (in words) [1]: does not inhibit

Continued, in another order:

Ki, fold higher than that of PCI [1]: 6 fold | binding affinity for CPR, fold stronger than PCI-2K-R [1]: ~46 fold | inhibitory activity against CPR (in words) [1]: competitive inhibitor | inhibitory activity against CPN ([2]; at 506 nM): did not exhibit any inhibitory activity
Compound: C[C@H](NC(=O)[C@H](CC(N)=O)NC(=O)[C@H](CCCCN)NC(=O)[C@H](C)NC(=O)[C@@H]1CCCN1C(=O)[C@H](CCCCN)NC(=O)[C@@H](N)CS)C(=O)N[C@@H](CCCNC(=N)N)C(=O)N[C@@H](CS)C(N)=O [CPI-2KR] (H-CKPAKNARC-NH2; N-terminus assumed)
effect on TM-induced retardation of t-PA-induced fibrinolysis (in words) [3]: synergistically accelerated fibrinolysis; also recorded: dose-responsive inhibition | effective inhibitory concentration, fold higher than that of PCI [3]: 10 fold | effective inhibitory concentration on TM-induced retardation of t-PA-induced fibrinolysis ([3]; TM 8 nM): 126 nM

inhibitory activity against CPN ([2]; at 425 nM): inhibited | inhibitory activity against CPN ([2]; at 2.1 mM): strong inhibitory activity
Compound: N=C(N)NCCSC(CC(=O)O)C(=O)O (centres unmarked) [GEMSA, guanidinoethylmercaptosuccinic acid]
concentration at which CPR is inhibited (literature [40]) (CPR): 18 mM

inhibitory activity against CPR (in words) [1]: no activity was observed
Compound: PCI-R: PCI-derived peptide containing the arginine residue, SEQ ID NO: 2 (QACWNSART)

Km ([1]; hippuryl-L-arginine substrate, Lineweaver-Burke, read-out: Km of CPR in the presence of the inhibitor): 12.3 mM
Compound: PCI: small 39-residue protein (MW 4295 Da), potato carboxypeptidase inhibitor, SEQ ID NO: 4 (QQHADPICNKPCKTHDDCSGAWFCQACWNSARTCGPYVG) [reference compound]
effect on TM-induced retardation of t-PA-induced fibrinolysis (in words) [3]: permitting fibrinolysis to proceed | Ki (CPR; read-out: Ki against CPR (literature)): 0.4 nM
